From article PMC467089, “Click estradiol dimers with novel aromatic bridging units: synthesis and anticancer evaluation” (Journal of Enzyme Inhibition and Medicinal Chemistry, 2024)

Columns and labels:
[1] = tested on: CCRF-CEM (childhood T-cell acute lymphoblastic leukaemia); assay: MTS cytotoxicity assay, CCRF-CEM; format: cell-based; conditions: Homo sapiens, 72 h, read-out: IC50 cytotoxic activity CCRF-CEM
Method: (§1) The p53 deficient variant, HCT116p53−/−, was purchased from Horizon Discovery (Cambridge, UK). The daunorubicin-resistant CCRF-CEM cell line CEM-DNR bulk and paclitaxel-resistant K562-TAX sublines were developed in-house by exposing parental cell lines to escalating concentrations of daunorubicin and paclitaxel, respectively. Cells were maintained in the recommended culture medium (Sigma-Aldrich, St. Louis, MO) supplemented with 10% foetal calf serum, 100 U/mL penicillin, and 100 μg/mL streptomycin. The HUVEC line was obtained from PromoCell (Heidelberg, Germany). The cells were cultured in endothelial cell growth medium with SupplementMix for endothelial cells (PromoCell, Heidelberg, Germany). The incubation conditions were a humidified atmosphere of 95% air and 5% CO2 at 37 °C[10]. Cells were seeded in 384-well plates and after overnight incubation treated with compounds. All tested compounds were dissolved in 100% DMSO, and fourfold serial dilutions were performed using an Echo550 liquid handler (Labcyte, San Jose, CA). The experiments were performed in technical duplicates and three biological replicates. Cells were incubated with compounds for 72 h and thereafter 5 μL of MTS reagent was added to each well.

[2] = tested on: CEM-DNR (daunorubicin resistant variant of CCRF-CEM); assay: MTS cytotoxicity assay, CEM-DNR; format: cell-based, human; conditions: Homo sapiens, CEM-DNR, 72 h, read-out: IC50 cytotoxic activity CEM-DNR
Method: as §1

[3] = tested on: K562 (chronic myelogenous leukaemia); assay: MTS cytotoxicity assay, K562; format: cell-based; conditions: Homo sapiens, K562, 72 h, read-out: IC50 cytotoxic activity K562
Method: as §1

[4] = tested on: K562-TAX (paclitaxel-resistant variant of K562); assay: MTS cytotoxicity assay, K562-TAX; format: cell-based, human; conditions: Homo sapiens, K562-Tax, 72 h, read-out: IC50 cytotoxic activity K562-TAX
Method: as §1

[5] = tested on: A549 (lung adenocarcinoma); assay: MTS cytotoxicity assay, A549; format: cell-based, human; conditions: Homo sapiens, A549, 72 h, read-out: IC50 cytotoxic activity A549
Method: as §1

[6] = tested on: HCT116 (colorectal adenocarcinoma); assay: MTS cytotoxicity assay, HCT116; format: cell-based; conditions: Homo sapiens, HCT-116, 72 h, read-out: IC50 cytotoxic activity HCT116
Method: as §1

[7] = tested on: HCT116p53−/− (p53 gene null variant of HCT116); assay: MTS cytotoxicity assay, HCT116p53−/−; format: cell-based; conditions: Homo sapiens, HCT-116, 72 h, read-out: IC50 cytotoxic activity HCT116p53-
Method: as §1

[8] = tested on: U2OS (osteosarcoma); assay: MTS cytotoxicity assay, U2OS; format: cell-based, human; conditions: Homo sapiens, U2OS, 72 h, read-out: IC50 cytotoxic activity U2OS
Method: as §1

[9] = MTS cytotoxicity assay, MRC-5; format: cell-based; conditions: human
Method: as §1

[10] = MTS cytotoxicity assay, BJ; format: cell-based; conditions: human
Method: as §1

[11] = MTS cytotoxicity assay, HUVEC; format: cell-based; conditions: human
Method: as §1

[12] = target: T1, porcine brain tubulin (Sus scrofa, UniProt P02550+P02554); assay: Tubulin polymerisation assay; format: biochemical; conditions: 10 μmol/L, Vmax relative to DMSO
T1 construct: purchased Cytoskeleton, Denver, CO; host or cells: porcine brain (tissue-purified)
Method: Tubulin polymerisation assay kit (Cytoskeleton, Denver, CO) was used according to the manufacturer’s instructions. Polymerisation of porcine brain tubulin (>99% purity) was measured using an EnVision Multilabel Plate Reader (PerkinElmer, Waltham, MA) at 37 °C, in the presence of either 10 μmol/L test compounds or DMSO. Maximum polymerisation velocity (Vmax) was calculated from the polymerisation curves. Data visualisation was performed in OriginPro 2018b (b9.5.5.409) software (OriginLab Corporation, Northampton, MA)[10].

[13] = tested on: CCRF-CEM lymphoblasts; assay: Cell cycle analysis by flow cytometry (propidium iodide); format: cell-based, human
Method: (§2) To further characterise the mode of action of studied compounds, we analysed the cell cycle profile of CCRF-CEM cells treated with compounds for 24 h. […] The compounds ED1–ED9 and ED12 induced arrest in G2/M phase of the cell cycle (Figure 2(A)). To differentiate between G2 block and mitotic arrest, we used phospho-histone H3 (Ser10) mitotic marker (Figure 2(B)). […] Generally, dimers induced a dose-dependent increase of sub G1 cell population with fragmented DNA except for ED2 and ED4 (Figure 2(C)). […] To assess the proliferation of treated cells, they were subjected to 5-bromo-2-deoxyuridine (BrDU) labelling. […] Analogously, changes in 5-bromouridine (BrU) incorporation were examined to monitor overall RNA synthesis.
(§3) Treated CCRF-CEM cells were harvested, washed with ice-cold phosphate-buffered saline (PBS), fixed in cold 70% ethanol and stored at −20 °C. Prior to analysis, fixed cells were permeabilised with 0.25% Triton X-100 in PBS for 15 min, blocked in 1% bovine serum, and incubated with anti-phospho-Histone H3 (Ser^10) antibody (Merck Millipore, Burlington, MA). Subsequently, the cells were treated with 50 μg/mL RNAse, stained with propidium iodide and analysed by FACSCalibur (Becton Dickinson, Franklin Lakes, NJ) flow cytometer at 488 nm. Cell cycle distribution (G1, S, and G2/M) was analysed using ModFitLT software (Verity, Topsham, ME), and reflects only viable population prior to the fixing procedure. Particles with lower propidium iodide content than G1 phase cells were classified as non-viable cells with fragmented DNA. Flow cytometry data visualisation was performed using OriginPro 2018b (b9.5.5.409) software (OriginLab Corporation, Northampton, MA)[10].

[14] = tested on: CCRF-CEM lymphoblasts; assay: Phospho-histone H3 (Ser10) mitotic marker, flow cytometry; format: cell-based, human
Method: as §2, §3

[15] = tested on: CCRF-CEM lymphoblasts; assay: BrDU incorporation analysis (DNA synthesis); format: cell-based, human
Method: as §2
Thirty minutes before harvesting, cells were pulse-labelled with 10 μM BrDU. After overnight fixation in ice-cold 70% ethanol, cells were resuspended in 2 M HCl for 30 min at room temperature (RT), then washed with 0.1 M Na2B4O7 and blocked with PBS containing 0.5% Tween-20 and 1% BSA. BrDU incorporation was analysed using anti-BrdU antibody clone MoBu-1 (Exbio, Vestec, Czech Republic) and a secondary anti-mouse-FITC antibody (Sigma-Aldrich, St. Louis, MO). Cells were washed with PBS and stained with 0.1 mg/mL propidium iodide and 0.5 mg/mL RNase A for 1 h at RT and analysed by flow cytometry using a 488 nm single beam laser (FACSCalibur, Becton Dickinson, Franklin Lakes, NJ). The percentage of cells with incorporated BrDU was analysed using CellQuest software.

[16] = tested on: CCRF-CEM lymphoblasts; assay: BrU incorporation analysis (RNA synthesis); format: cell-based, human
Method: as §2
Prior to the trypsinisation, cells were treated with 1 mM BrU for 30 min. Subsequently, the cells were fixed in 1% paraformaldehyde with 0.05% of NP-40 for 15 min at RT and stored overnight at 4 °C. Fixed cells were washed with 1% glycine in PBS and stained with primary anti-BrdU antibody clone MoBu-1 crossreacting with BrU (Exbio, Vestec, Czech Republic) for 30 min at RT, washed with PBS and labelled with secondary anti-mouse-FITC antibody (Sigma-Aldrich, St. Louis, MO). Following 1-h incubation in 1% paraformaldehyde containing 0.05% NP-40, cells were stained with propidium iodide (0.1 mg/mL) and treated with RNase A (0.5 mg/mL) for 1 h at RT. The percentage of BrU positive cells was quantified using CellQuest software.

T1 sequence (P02550 whole entry): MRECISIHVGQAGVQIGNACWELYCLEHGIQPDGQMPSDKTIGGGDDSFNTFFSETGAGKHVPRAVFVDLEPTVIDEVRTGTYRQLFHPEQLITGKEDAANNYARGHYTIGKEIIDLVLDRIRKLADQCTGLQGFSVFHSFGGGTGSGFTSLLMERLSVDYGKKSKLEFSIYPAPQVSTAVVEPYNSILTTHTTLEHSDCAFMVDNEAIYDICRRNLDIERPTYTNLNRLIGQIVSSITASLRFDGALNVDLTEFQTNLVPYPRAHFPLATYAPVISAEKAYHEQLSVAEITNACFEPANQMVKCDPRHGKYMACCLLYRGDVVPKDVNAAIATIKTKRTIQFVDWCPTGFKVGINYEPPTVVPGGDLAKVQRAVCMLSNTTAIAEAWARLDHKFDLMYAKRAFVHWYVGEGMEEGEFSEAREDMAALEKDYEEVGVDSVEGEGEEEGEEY
T1 sequence (P02554 whole entry): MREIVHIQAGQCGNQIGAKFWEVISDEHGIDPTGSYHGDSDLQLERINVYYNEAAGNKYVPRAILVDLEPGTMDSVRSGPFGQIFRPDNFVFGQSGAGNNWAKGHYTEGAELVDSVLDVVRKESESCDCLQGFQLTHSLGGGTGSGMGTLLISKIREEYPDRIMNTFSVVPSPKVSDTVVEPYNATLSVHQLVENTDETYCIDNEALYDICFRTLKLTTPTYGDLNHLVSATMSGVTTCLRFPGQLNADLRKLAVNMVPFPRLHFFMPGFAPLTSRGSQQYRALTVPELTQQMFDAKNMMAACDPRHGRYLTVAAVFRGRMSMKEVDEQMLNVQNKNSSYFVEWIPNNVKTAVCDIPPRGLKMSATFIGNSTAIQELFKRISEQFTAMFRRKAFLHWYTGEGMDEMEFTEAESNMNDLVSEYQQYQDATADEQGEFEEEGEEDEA

## CC(=O)Oc1c(Cn2cc([C@]3(O)CC[C@H]4[C@@H]5CCc6cc(O)ccc6[C@H]5CC[C@@]43C)nn2)cc(C)cc1Cn1cc([C@]2(O)CC[C@H]3[C@@H]4CCc5cc(O)ccc5[C@H]4CC[C@@]32C)nn1 [ED7, 2,6-Bis({4-[(17β)-3,17-dihydroxyestra-1,3,5(10)-trien-17-yl]-1H-1,2,3-triazol-1-yl}methyl)-4-methylphenyl acetate]
[1]
  IC50: 1.29 ± 0.13 µM
[2]
  IC50: > 50 µM
[3]
  IC50: 0.77 ± 0.13 µM
[4]
  IC50: > 50 µM
[5]
  IC50: > 50 µM
[6]
  IC50: 1.61 ± 0.087 µM
[7]
  IC50: 1.79 ± 0.17 µM
[8]
  IC50: 3.86 ± 1.39 µM
[9]
  IC50 at 72 h: > 50 µM
[10]
  IC50 at 72 h: > 50 µM
[11]
  IC50 at 72 h: 0.014 ± 0.002 µM
[12]
  inhibitory activity against tubulin polymerisation (in words): comparable or better inhibitory activity
[13]; 1×IC50, 24 h
  <G1 (sub-G1, fragmented DNA), % of positive cells: 40.74%
  >G2/M (polyploidy), % of positive cells: 7.12%
  G0/G1, % of positive cells: 32.36%
  G2/M, % of positive cells: 33.76%
  S, % of positive cells: 33.88%
[13]; 5×IC50, 24 h
  <G1 (sub-G1, fragmented DNA), % of positive cells: 45.33%
  >G2/M (polyploidy), % of positive cells: 7.43%
  G0/G1, % of positive cells: 32.48%
  G2/M, % of positive cells: 32.87%
  S, % of positive cells: 34.65%
[14]; 1×IC50, 24 h
  pH3Ser10, % of positive cells: 0.68%
[14]; 5×IC50, 24 h
  pH3Ser10, % of positive cells: 11.22%
[15]; 1×IC50, 24 h
  BrDU, % of positive cells: 9.50%
[15]; 5×IC50, 24 h
  BrDU, % of positive cells: 5.65%
[16]; 1×IC50, 24 h
  BrU, % of positive cells: 52.67%
[16]; 5×IC50, 24 h
  BrU, % of positive cells: 27.20%
